Data published in US7495104B2, “Quinoline or quinazoline derivatives inhibiting auto-phosphorylation of fibroblast growth factor receptors” (Kirin Beer Kabushiki Kaisha, priority 2001, dated 2009).

What follows are molecules tested against Bek (Homo sapiens, UniProt P21802) (assay: Inhibitory activity against Bek-autophosphorylation using ELISA method in OCUM-2MD3 cells). Settings: 1 hr with compound, read-out: IC50 (concentration necessary for inhibiting 50% of Bek-phosphorylation).
Assay type: cell-based
In short: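 OCUM-2MD3 human scirrhous gastric cancer cells in 0.1% FCS were exposed to compound for 1 hr at 37° C, then lysed. Phospho-tyrosine proteins were captured with anti-phosphotyrosine antibody, probed with anti-Bek antibody and peroxidase read-out (A450). Positive control (1000 nM) set 0%, untreated 100%; IC50 from multi-level dilutions.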

Chain of Bek (P21802 431-767 limits assumed): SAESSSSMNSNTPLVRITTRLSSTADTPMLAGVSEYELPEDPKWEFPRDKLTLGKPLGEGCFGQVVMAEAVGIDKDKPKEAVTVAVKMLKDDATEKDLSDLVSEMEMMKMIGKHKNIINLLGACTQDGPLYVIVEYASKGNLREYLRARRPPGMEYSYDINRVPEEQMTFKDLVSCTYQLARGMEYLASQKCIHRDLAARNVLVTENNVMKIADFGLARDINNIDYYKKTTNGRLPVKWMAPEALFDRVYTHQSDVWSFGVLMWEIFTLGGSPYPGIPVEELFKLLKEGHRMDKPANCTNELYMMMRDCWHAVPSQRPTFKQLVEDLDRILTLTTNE

| SMILES | IC50 [nM] |
| --- | --- |
| COCC1CCN(CCCOc2cc3nccc(Oc4ccc(NC(=O)NCCC(C)(C)C)cc4)c3cc2OC)CC1 [Compound 282, 1-(3,3-Dimethyl-butyl)-3-(4-{6-methoxy-7-[3-(4-methoxymethyl-piperidin-1-yl)-propoxy]-quinolin-4-yloxy}-phenyl)-urea] | 31.6 |
| COc1cc2c(Oc3ccc(Nc4ccc(C(C)(C)C)cc4)cc3F)ccnc2cc1OCCN1CCC(CO)CC1 [Compound 283, [1-(2-{4-[4-(4-Tert-butyl-phenylamino)-2-fluoro-phenoxy]-6-methoxy-quinolin-7-yloxy}-ethyl)-piperidin-4-yl]-methanol] | 167 |
| COc1cc2c(Oc3ccc(Nc4ccc(C(C)(C)C)cc4)cc3F)ccnc2cc1OCCN1CCC(O)CC1 [Compound 284, 1-(2-{4-[4-(4-Tert-butyl-phenylamino)-2-fluoro-phenoxy]-6-methoxy-quinolin-7-yloxy}-ethyl)-piperidin-4-ol] | 247 |
| COc1cc2c(Oc3ccc(NC(=O)NCCC(C)(C)C)cc3F)ccnc2cc1OCCCN1CCC(O)CC1 [Compound 286, 1-(3,3-Dimethyl-butyl)-3-(3-fluoro-4-{7-[3-(4-hydroxy-piperidin-1-yl)-propoxy]-6-methoxy-quinolin-4-yloxy}-phenyl)-urea] | 17.2 |
| COc1cc2c(Oc3ccc(Nc4ccc(C(C)(C)C)cc4)c(F)c3)ccnc2cc1OCCCN1CCC(O)CC1 [Compound 289, 1-(3-{4-[4-(4-Tert-butyl-phenylamino)-3-fluoro-phenoxy]-6-methoxy-quinolin-7-yloxy}-propyl)-piperidin-4-ol] | 248 |
| COc1cc2c(Oc3ccc(Nc4ccc(C(C)(C)C)cc4)c(F)c3)ccnc2cc1OCCCN1CCC(CO)CC1 [Compound 290, [1-(3-{4-[4-(4-Tert-butyl-phenylamino)-3-fluoro-phenoxy]-6-methoxy-quinolin-7-yloxy}-propyl)-piperidin-4-yl]-methanol] | 233 |
| COc1cc2c(Oc3ccc(Nc4ccc(C(C)(C)C)cc4)c(Cl)c3)ccnc2cc1OCCN1CCC(CCO)CC1 [Compound 293, 2-[1-(2-{4-[4-(4-Tert-butyl-phenylamino)-3-chloro-phenoxy]-6-methoxy-quinolin-7-yloxy}-ethyl)-piperidin-4-yl]-ethanol] | 2360 |
| COc1cc2c(Oc3ccc(Nc4ccc(C(C)(C)C)cc4)c(Cl)c3)ccnc2cc1OCCCN1CCC(CCO)CC1 [Compound 294, 2-[1-(3-{4-[4-(4-Tert-butyl-phenylamino)-3-chloro-phenoxy]-6-methoxy-quinolin-7-yloxy}-propyl)-piperidin-4-yl]-ethanol] | 1100 |
| COc1cc2c(Oc3ccc(NC(=O)NCCC(C)(C)C)cc3F)ccnc2cc1OCCN1CCC(CO)CC1 [Compound 295, 1-(3,3-Dimethyl-butyl)-3-(3-fluoro-4-{7-[2-(4-hydroxymethyl-piperidin-1-yl)-ethoxy]-6-methoxy-quinolin-4-yloxy}-phenyl)-urea] | 14.4 |
| COc1cc2c(Oc3ccc(NC(=O)NCCC(C)(C)C)cc3F)ccnc2cc1OCCN1CCC(O)CC1 [Compound 296, 1-(3,3-Dimethyl-butyl)-3-(3-fluoro-4-{7-[2-(4-hydroxy-piperidin-1-yl)-ethoxy]-6-methoxy-quinolin-4-yloxy}-phenyl)-urea] | 19.8 |
| COc1cc2c(Oc3ccc(NC(=O)NCCC(C)(C)C)cc3F)ccnc2cc1OCCN1CCC(CCO)CC1 [Compound 297, 1-(3,3-Dimethyl-butyl)-3-[3-fluoro-4-(7-{2-[4-(2-hydroxy-ethyl)-piperidin-1-yl]-ethoxy}-6-methoxy-quinolin-4-yloxy)-phenyl]-urea] | 42.4 |
| COc1cc2c(Oc3ccc(NC(=O)NCCC(C)(C)C)cc3F)ccnc2cc1OCCCN1CCC(CCO)CC1 [Compound 298, 1-(3,3-Dimethyl-butyl)-3-[3-fluoro-4-(7-{3-[4-(2-hydroxy-ethyl)-1-piperidin-1-yl]-propoxy}-6-methoxy-quinolin-4-yloxy)-phenyl]-urea] | 41.7 |
| COc1cc2c(Oc3ccc(NC(=O)NCCC(C)(C)C)c(F)c3)ccnc2cc1OCCN1CCC(O)CC1 [Compound 299, 1-(3,3-Dimethyl-butyl)-3-(2-fluoro-4-{7-[2-(4-hydroxy-piperidin-1-yl)-ethoxy]-6-methoxy-quinolin-4-yloxy}-phenyl)-urea] | 27.4 |
| COc1cc2c(Oc3ccc(NC(=O)NCCC(C)(C)C)c(F)c3)ccnc2cc1OCCN1CCC(CO)CC1 [Compound 300, 1-(3,3-Dimethyl-butyl)-3-(2-fluoro-4-{7-[2-(4-hydroxymethyl-piperidin-1-yl)-ethoxy]-6-methoxy-quinolin-4-yloxy}-phenyl)-urea] | 22.7 |
| COc1cc2c(Oc3ccc(NC(=O)NCCC(C)(C)C)c(F)c3)ccnc2cc1OCCN1CCC(CCO)CC1 [Compound 301, 1-(3,3-Dimethyl-butyl)-3-[2-fluoro-4-(7-{2-[4-(2-hydroxy-ethyl)-piperidin-1-yl]-ethoxy}-6-methoxy-quinolin-4-yloxy)-phenyl]-urea] | 38.4 |
| COc1cc2c(Oc3ccc(Nc4ccc(C(C)(C)C)cc4)c(F)c3)ccnc2cc1OCCN1CCC(CCO)CC1 [Compound 305, 2-[1-(2-{4-[4-(4-Tert-butyl-phenylamino)-3-fluoro-phenoxy]-6-methoxy-quinolin-7-yloxy}-ethyl)-piperidin-4-yl]-ethanol] | 359 |
| COc1cc2c(Oc3ccc(Nc4ccc(C(C)(C)C)cc4)cc3Cl)ccnc2cc1OCCN1CCC(CO)CC1 [Compound 308, [1-(2-{4-[4-(4-Tert-butyl-phenylamino)-2-chloro-phenoxy]-6-methoxy-quinolin-7-yloxy}-ethyl)-piperidin-4-yl]-methanol] | 204 |
| COc1cc2c(Oc3ccc(Nc4ccc(C(C)(C)C)cc4)cc3Cl)ccnc2cc1OCCCN1CCC(O)CC1 [Compound 309, 1-(3-{4-[4-(4-Tert-butyl-phenylamino)-2-chloro-phenoxy]-6-methoxy-quinolin-7-yloxy}-propyl)-piperidin-4-ol] | 211 |
| COc1cc2c(Oc3ccc(NC(=O)NCCC(C)(C)C)cc3Cl)ccnc2cc1OCCN1CCC(CO)CC1 [Compound 312, 1-(3-Chloro-4-{7-[2-(4-hydroxymethyl-piperidin-1-yl)-ethoxy]-6-methoxy-quinolin-4-yloxy}-phenyl)-3-(3,3-dimethyl-butyl)-urea] | 20.5 |

Continued by falling IC50, values first:

| IC50 [nM] | SMILES |
| --- | --- |
| 379 | COc1cc2c(Oc3ccc(Nc4ccc(C(C)(C)C)cc4)cc3Cl)ccnc2cc1OCCN1CCC(O)CC1 [Compound 307, 1-(2-{4-[4-(4-Tert-butyl-phenylamino)-2-chloro-phenoxy]-6-methoxy-quinolin-7-yloxy}-ethyl)-piperidin-4-ol] |
| 286 | COc1cc2c(Oc3ccc(Nc4ccc(C(C)(C)C)cc4)c(F)c3)ccnc2cc1OCCCN1CCC(CCO)CC1 [Compound 306, 2-[1-(3-{4-[4-(4-Tert-butyl-phenylamino)-3-fluoro-phenoxy]-6-methoxy-quinolin-7-yloxy}-propyl)-piperidin-4-yl]-ethanol] |
| 254 | COc1cc2c(Oc3ccc(Nc4ccc(C(C)(C)C)cc4)c(F)c3)ccnc2cc1OCCN1CCC(O)CC1 [Compound 287, 1-(2-{4-[4-(4-Tert-butyl-phenylamino)-3-fluoro-phenoxy]-6-methoxy-quinolin-7-yloxy}-ethyl)-piperidin-4-ol] |
| 184 | COc1cc2c(Oc3ccc(Nc4ccc(C(C)(C)C)cc4)cc3Cl)ccnc2cc1OCCCN1CCC(CO)CC1 [Compound 310, [1-(3-{4-[4-(4-Tert-butyl-phenylamino)-2-chloro-phenoxy]-6-methoxy-quinolin-7-yloxy}-propyl)-piperidin-4-yl]-methanol] |
| 110 | COc1cc2c(Oc3ccc(Nc4ccc(C(C)(C)C)cc4)c(F)c3)ccnc2cc1OCCN1CCC(CO)CC1 [Compound 288, [1-(2-{4-[4-(4-Tert-butyl-phenylamino)-3-fluoro-phenoxy]-6-methoxy-quinolin-7-yloxy}-ethyl)-piperidin-4-yl]-methanol] |
| 49.6 | COc1cc2c(Oc3ccc(NC(=O)NCCC(C)(C)C)c(Cl)c3)ccnc2cc1OCCN1CCC(CCO)CC1 [Compound 292, 1-[2-Chloro-4-(7-{2-[4-(2-hydroxy-ethyl)-piperidin-1-yl]-ethoxy}-6-methoxy-quinolin-4-yloxy)-phenyl]-3-(3,3-dimethyl-butyl)-urea] |
| 31.2 | COc1cc2c(Oc3ccc(NC(=O)NCCC(C)(C)C)c(F)c3)ccnc2cc1OCCCN1CCC(CCO)CC1 [Compound 304, 1-(3,3-Dimethyl-butyl)-3-[2-fluoro-4-(7-{3-[4-(2-hydroxy-ethyl)-piperidin-1-yl]-propoxy}-6-methoxy-quinolin-4-yloxy)-phenyl]-urea] |
| 26.6 | COc1cc2c(Oc3ccc(NC(=O)NCCC(C)(C)C)c(F)c3)ccnc2cc1OCCCN1CCC(O)CC1 [Compound 302, 1-(3,3-Dimethyl-butyl)-3-(2-fluoro-4-{7-[3-(4-hydroxy-piperidin-1-yl)-propoxy]-6-methoxy-quinolin-4-yloxy}-phenyl)-urea] |
| 23.1 | COc1cc2c(Oc3ccc(NC(=O)NCCC(C)(C)C)cc3Cl)ccnc2cc1OCCN1CCC(O)CC1 [Compound 311, 1-(3-Chloro-4-{7-[2-(4-hydroxy-piperidin-1-yl)-ethoxy]-6-methoxy-quinolin-4-yloxy}-phenyl)-3-(3,3-dimethyl-butyl)-urea] |
| 22.8 | COc1cc2c(Oc3ccc(NC(=O)NCCC(C)(C)C)cc3F)ccnc2cc1OCCCN1CCC(CO)CC1 [Compound 285, 1-(3,3-Dimethyl-butyl)-3-(3-fluoro-4-{7-[3-(4-hydroxymethyl-piperidin-1-yl)-propoxy]-6-methoxy-quinolin-4-yloxy}-phenyl)-urea] |
| 22 | COc1cc2c(Oc3ccc(NC(=O)NCCC(C)(C)C)c(F)c3)ccnc2cc1OCCCN1CCC(CO)CC1 [Compound 303, 1-(3,3-Dimethyl-butyl)-3-(2-fluoro-4-{7-[3-(4-hydroxymethyl-piperidin-1-yl)-propoxy]-6-methoxy-quinolin-4-yloxy}-phenyl)-urea] |
